Assay results published in patent publication US11358977B2, “Deuterated pyridone amides and prodrugs thereof as modulators of sodium channels” (VERTEX PHARMACEUTICALS INCORPORATED, priority 2017, dated 2022).

Tests used:
human NaV 1.8 = target: T1, human NaV 1.8 (Homo sapiens, UniProt Q9Y5Y9); assay: E-VIPR assay for NaV inhibition; type: cell-based; conditions: HEK cells expressing human NaV 1.8, E-VIPR
T1 construct: expressed in transfected cells; host or cells: HEK cells, grown under blasticidin selection; KIR2.1 BacMam virus added before seeding
T1 sequence (Q9Y5Y9 whole entry): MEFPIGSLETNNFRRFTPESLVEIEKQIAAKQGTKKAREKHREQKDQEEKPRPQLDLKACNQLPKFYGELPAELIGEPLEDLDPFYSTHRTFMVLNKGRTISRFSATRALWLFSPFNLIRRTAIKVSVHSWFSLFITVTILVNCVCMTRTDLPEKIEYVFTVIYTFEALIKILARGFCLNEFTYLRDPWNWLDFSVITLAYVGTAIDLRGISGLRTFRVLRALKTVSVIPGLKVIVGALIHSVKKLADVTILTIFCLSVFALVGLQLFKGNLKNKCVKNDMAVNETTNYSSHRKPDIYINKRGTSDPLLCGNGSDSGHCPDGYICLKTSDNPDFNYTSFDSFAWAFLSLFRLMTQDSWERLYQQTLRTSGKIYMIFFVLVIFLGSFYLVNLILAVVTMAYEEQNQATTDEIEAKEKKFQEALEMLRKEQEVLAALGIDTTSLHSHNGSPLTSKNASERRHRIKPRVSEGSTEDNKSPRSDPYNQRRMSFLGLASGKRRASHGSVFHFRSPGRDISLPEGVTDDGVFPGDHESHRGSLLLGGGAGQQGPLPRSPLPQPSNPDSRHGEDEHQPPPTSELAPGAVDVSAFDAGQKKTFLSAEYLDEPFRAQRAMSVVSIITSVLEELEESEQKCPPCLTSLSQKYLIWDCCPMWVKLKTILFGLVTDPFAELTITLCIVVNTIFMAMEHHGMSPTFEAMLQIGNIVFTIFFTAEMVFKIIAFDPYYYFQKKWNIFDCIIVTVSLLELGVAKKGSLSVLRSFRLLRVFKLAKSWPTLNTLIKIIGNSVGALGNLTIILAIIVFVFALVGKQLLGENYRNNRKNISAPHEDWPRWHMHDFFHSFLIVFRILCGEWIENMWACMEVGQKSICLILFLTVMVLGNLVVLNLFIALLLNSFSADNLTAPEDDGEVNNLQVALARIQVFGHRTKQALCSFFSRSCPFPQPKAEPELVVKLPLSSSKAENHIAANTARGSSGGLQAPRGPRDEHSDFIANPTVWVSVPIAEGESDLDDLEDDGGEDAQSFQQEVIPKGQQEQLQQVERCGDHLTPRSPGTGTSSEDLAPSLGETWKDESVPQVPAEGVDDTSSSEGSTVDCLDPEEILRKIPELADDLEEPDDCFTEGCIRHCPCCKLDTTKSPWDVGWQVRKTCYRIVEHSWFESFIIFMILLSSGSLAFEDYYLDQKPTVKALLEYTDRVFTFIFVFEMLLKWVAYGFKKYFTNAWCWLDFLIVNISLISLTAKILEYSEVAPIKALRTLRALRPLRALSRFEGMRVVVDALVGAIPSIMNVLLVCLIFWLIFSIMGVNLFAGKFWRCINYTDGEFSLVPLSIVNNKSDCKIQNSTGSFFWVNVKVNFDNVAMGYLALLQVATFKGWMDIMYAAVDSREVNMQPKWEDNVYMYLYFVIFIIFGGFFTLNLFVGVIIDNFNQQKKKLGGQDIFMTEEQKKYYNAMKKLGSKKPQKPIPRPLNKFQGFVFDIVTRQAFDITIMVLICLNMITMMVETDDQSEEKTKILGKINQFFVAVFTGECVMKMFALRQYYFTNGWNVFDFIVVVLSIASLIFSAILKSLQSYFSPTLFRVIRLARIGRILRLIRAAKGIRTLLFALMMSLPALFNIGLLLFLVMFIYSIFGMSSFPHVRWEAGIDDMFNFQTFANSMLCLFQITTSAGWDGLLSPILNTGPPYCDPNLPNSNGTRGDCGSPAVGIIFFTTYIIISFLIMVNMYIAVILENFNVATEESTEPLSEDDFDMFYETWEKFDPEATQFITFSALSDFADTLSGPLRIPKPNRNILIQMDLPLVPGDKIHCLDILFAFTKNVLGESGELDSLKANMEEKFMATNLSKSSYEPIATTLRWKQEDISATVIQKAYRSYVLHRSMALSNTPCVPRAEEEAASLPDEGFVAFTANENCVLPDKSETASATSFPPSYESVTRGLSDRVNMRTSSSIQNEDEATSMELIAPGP
Source text: Sodium ion channels are voltage-dependent proteins that can be activated by inducing membrane voltage changes by applying electric fields. […] The instrument comprises a microtiter plate handler, an optical system for exciting the coumarin dye while simultaneously recording the coumarin and oxonol emissions, a waveform generator, a current- or voltage-controlled amplifier, and parallel electrode pairs that are inserted into assay plate wells. Under integrated computer control, this instrument passes user-programmed electrical stimulus protocols to cells within the wells of the microtiter plate.
The solution was made by adding 10% Pluronic F127 stock equal to combined volumes of CC2-DMPE and DiSBAC6(3).
Then 25 μL per well from compound plate was transferred to each cell plate.
A pre-stimulus recording was performed for 0.5 seconds to obtain the un-stimulated intensities baseline. The stimulatory waveform was followed by 0.5 seconds of post-stimulation recording to examine the relaxation to the resting state.

[1] = In vitro hepatocyte assay: prodrug conversion to parent compound; type: in vitro ADME, human
Method: Materials. Cryopreserved human hepatocytes and Cryopreserved Hepatocytes Recovery Medium (CHRM™) were purchased from Life Technologies (Carlsbad, Calif.). Gibco™ Leibovitz's L-15 Medium was purchased from Fisher Scientific (Waltham, Mass.).
Methods. 10 mM stock solutions containing Compound 20 and Compound 13 were prepared in DMSO. Equal volumes of the two 10 mM stock solutions were mixed to form a combination stock solution containing Compound 20 and Compound 13 in concentrations of 5 mM each. The 5 mM combination stock solution was diluted to a concentration of 50 μM of each compound in DMSO (“50 μM combination stock”). Cryopreserved human hepatocytes were thawed in CHRM™ medium and prepared as a suspension in incubation medium (L-15 Medium with supplements containing glucose, HEPES buffer and NaHCO3), with the final cell concentration of 0.625 million cells/mL. In a 48 well plate, 1 μL of the 50 μM combination stock and then 199 μL of hepatocyte suspension (0.625 million cells/mL) were added to each well. The plate was covered and incubated at 37° C. in an incubator with gentle shaking (50 rpm). The reactions were quenched at 0, 0.25, 0.5, 1 and 2 hours by adding 200 μL of ice-cold quench solution (ACN:MeOH:0.1% aqueous formic acid, 2:2:1) containing internal standard (n=3 per time point). […] LC-MS/MS analysis was conducted using a Phenomenex Luna C8 column (3 micron, 2 mm diameter×30 mm long, at room temperature) eluted with a gradient consisting of mobile phases of 0.1% formic acid in water and 0.1% formic acid in acetonitrile at a total flow rate of 0.6 mL/min and a total run time of 4.5 minutes. The analytes were detected by MS/MS with Electrospray Ionization (ESI) in the mode of multiple reaction monitoring (MRM). The injection volume was 10 μL.

## [2H]C([2H])([2H])c1cc(F)ccc1Oc1cc(C(F)(F)F)ccc1C(=O)Nc1ccn(COP(=O)(O)O)c(=O)c1 [Compound 13, (4-(2-(4-fluoro-2-(methyl-d3)phenoxy)-4-(trifluoromethyl)benzamido)-2-oxopyridin-1(2H)-yl)methyl dihydrogen phosphate]
Human NaV 1.8; 11 point dose response, top dose 3 μM, read-out: Nav1.8 IC50
  IC50: 1200 nM
Human NaV 1.8; normalised to positive control 25 μM
  Nav1.8 Max % Activity: 99%
[1]; cryopreserved human hepatocytes in suspension, cryopreserved human hepatocytes 0.625 million cells/mL, 37° C., Compounds 20 and 13 co-incubated, read-out: t1/2 in human hepatocytes
  half-life at 0.25 µM: < 30 min
[1]; human hepatocytes, LC-MS/MS, Compound 20 to Compound 10, Compound 13 to Compound 7
  conversion of prodrug to parent compound: fast conversion
[1]; human hepatocytes, time 0 hr
  % remaining: 100%
[1]; human hepatocytes, time 0.25 hr
  % remaining: 73.8%
[1]; human hepatocytes, time 0.5 hr
  % remaining: 33.2%
[1]; human hepatocytes, time 1 hr
  % remaining: 11.1%
[1]; human hepatocytes, time 2 hr
  % remaining: 11.8%
